Source: PubChem BioAssay (NCI)
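GI50: concentration for 50% inhibition of growth. TGI is the concentration that stops growth completely.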

Columns and labels:
Experiment in all cases: NCI-60 cell line screen, 384-well format
786-0 renal = system: 786-0 renal
A498 renal = system: A498 renal
A549 NSCLC = system: A549 NSCLC
ACHN renal = system: ACHN renal
BT-549 breast = system: BT-549 breast
CAKI-1 renal = system: CAKI-1 renal
CCRF-CEM leukemia = system: CCRF-CEM leukemia
DU-145 prostate = system: DU-145 prostate
EKVX NSCLC = system: EKVX NSCLC
HCT-116 colon = system: HCT-116 colon
HCT-15 colon = system: HCT-15 colon
HL-60(TB) leukemia = system: HL-60(TB) leukemia
HOP-62 NSCLC = system: HOP-62 NSCLC
HOP-92 NSCLC = system: HOP-92 NSCLC
HS 578T breast = system: HS 578T breast
HT29 colon = system: HT29 colon
IGROV1 ovarian = system: IGROV1 ovarian
K-562 leukemia = system: K-562 leukemia
KM12 colon = system: KM12 colon
LOX IMVI melanoma = system: LOX IMVI melanoma
M14 melanoma = system: M14 melanoma
MALME-3M melanoma = system: MALME-3M melanoma
MCF7 breast = system: MCF7 breast
MDA-MB-231 breast = system: MDA-MB-231 breast
MDA-MB-435 melanoma = system: MDA-MB-435 melanoma
MDA-MB-468 breast = system: MDA-MB-468 breast
MOLT-4 leukemia = system: MOLT-4 leukemia
NCI-H226 lung = system: NCI-H226 lung
NCI-H23 lung = system: NCI-H23 lung
NCI-H322M lung = system: NCI-H322M lung
NCI-H522 lung = system: NCI-H522 lung
NCI/ADR-RES ovarian = system: NCI/ADR-RES ovarian
OVCAR-3 ovarian = system: OVCAR-3 ovarian
OVCAR-4 ovarian = system: OVCAR-4 ovarian
OVCAR-5 ovarian = system: OVCAR-5 ovarian
OVCAR-8 ovarian = system: OVCAR-8 ovarian
PC-3 prostate = system: PC-3 prostate
RPMI-8226 leukemia = system: RPMI-8226 leukemia
RXF 393 renal = system: RXF 393 renal
SF-268 CNS = system: SF-268 CNS
SF-295 CNS = system: SF-295 CNS
SF-539 CNS = system: SF-539 CNS
SK-MEL-2 melanoma = system: SK-MEL-2 melanoma
SK-MEL-28 melanoma = system: SK-MEL-28 melanoma
SK-OV-3 ovarian = system: SK-OV-3 ovarian
SN12C renal = system: SN12C renal
SNB-19 CNS = system: SNB-19 CNS
SNB-75 CNS = system: SNB-75 CNS
SW-620 colon = system: SW-620 colon
T-47D breast = system: T-47D breast
TK-10 renal = system: TK-10 renal
U251 glioblastoma = system: U251 glioblastoma
UACC-257 melanoma = system: UACC-257 melanoma
UACC-62 melanoma = system: UACC-62 melanoma
UO-31 renal = system: UO-31 renal

O=P1(NCCCl)OCCCN1CCCl (stereo not given) gave a GI50 ([…]-0 renal) greater than 100 µM, a TGI (786-0 renal) greater than 100 µM and a GI50 (A498 renal) greater than 100 µM. The TGI (A498 renal) was greater than 100 µM, the GI50 (A549 NSCLC) was greater than 100 µM and the TGI (A549 NSCLC) was greater than 100 µM. For the same compound, the GI50 (ACHN renal) was greater than 100 µM, the TGI (ACHN renal) was greater than 100 µM and the GI50 (BT-549 breast) was greater than 100 µM. The TGI (BT-549 breast) was greater than 100 µM, the GI50 (CAKI-1 renal) was greater than 100 µM and the TGI (CAKI-1 renal) was greater than 100 µM. For the same compound, the GI50 (CCRF-CEM leukemia) was greater than 100 µM, the TGI (CCRF-CEM leukemia) was greater than 100 µM and the GI50 (DU-145 prostate) was greater than 100 µM. The TGI (DU-145 prostate) was greater than 100 µM, the GI50 (EKVX NSCLC) was greater than 100 µM and the TGI (EKVX NSCLC) was greater than 100 µM. For the same compound, the GI50 (HCT-116 colon) was greater than 100 µM, the TGI (HCT-116 colon) was greater than 100 µM and the GI50 (HCT-15 colon) was greater than 100 µM. The TGI (HCT-15 colon) was greater than 100 µM, the GI50 (HL-60(TB) leukemia) was greater than 100 µM and the TGI (HL-60(TB) leukemia) was greater than 100 µM. The GI50 (HOP-62 NSCLC) was greater than 100 µM, the TGI (HOP-62 NSCLC) was greater than 100 µM and the GI50 (HOP-92 NSCLC) was greater than 100 µM. It also gave a TGI (HOP-92 NSCLC) greater than 100 µM, a GI50 (HS 578T breast) greater than 100 µM and a TGI (HS 578T breast) greater than 100 µM. The GI50 (HT29 colon) was greater than 100 µM, the TGI (HT29 colon) was greater than 100 µM and the GI50 (IGROV1 ovarian) was greater than 100 µM. It also gave a TGI (IGROV1 ovarian) greater than 100 µM, a GI50 (K-562 leukemia) greater than 100 µM and a TGI (K-562 leukemia) greater than 100 µM. For the same compound, the GI50 (KM12 colon) was greater than 100 µM, the TGI (KM12 colon) was greater than 100 µM and the GI50 (LOX IMVI melanoma) was greater than 100 µM. The TGI (LOX IMVI melanoma) was greater than 100 µM, the GI50 (M14 melanoma) was greater than 100 µM and the TGI (M14 melanoma) was greater than 100 µM. For the same compound, the GI50 (MALME-3M melanoma) was greater than 100 µM, the TGI (MALME-3M melanoma) was greater than 100 µM and the GI50 (MCF7 breast) was greater than 100 µM. It also gave a TGI (MCF7 breast) greater than 100 µM, a GI50 (MDA-MB-231 breast) greater than 100 µM and a TGI (MDA-MB-231 breast) greater than 100 µM. It also gave a GI50 (MDA-MB-435 melanoma) greater than 100 µM, a TGI (MDA-MB-435 melanoma) greater than 100 µM and a GI50 (MDA-MB-468 breast) greater than 100 µM. It also gave a TGI (MDA-MB-468 breast) greater than 100 µM, a GI50 (MOLT-4 leukemia) greater than 100 µM and a TGI (MOLT-4 leukemia) greater than 100 µM. For the same compound, the GI50 (NCI-H226 lung) was greater than 100 µM, the TGI (NCI-H226 lung) was greater than 100 µM and the GI50 (NCI-H23 lung) was greater than 100 µM. For the same compound, the TGI (NCI-H23 lung) was greater than 100 µM, the GI50 (NCI-H322M lung) was greater than 100 µM and the TGI (NCI-H322M lung) was greater than 100 µM. It also gave a GI50 (NCI-H522 lung) greater than 100 µM, a TGI (NCI-H522 lung) greater than 100 µM and a GI50 (NCI/ADR-RES ovarian) greater than 100 µM. The TGI (NCI/ADR-RES ovarian) was greater than 100 µM, the GI50 (OVCAR-3 ovarian) was greater than 100 µM and the TGI (OVCAR-3 ovarian) was greater than 100 µM. For the same compound, the GI50 (OVCAR-4 ovarian) was greater than 100 µM, the TGI (OVCAR-4 ovarian) was greater than 100 µM and the GI50 (OVCAR-5 ovarian) was greater than 100 µM. It also gave a TGI (OVCAR-5 ovarian) greater than 100 µM, a GI50 (OVCAR-8 ovarian) greater than 100 µM and a TGI (OVCAR-8 ovarian) greater than 100 µM. The GI50 (PC-3 prostate) was greater than 100 µM, the TGI (PC-3 prostate) was greater than 100 µM and the GI50 (RPMI-8226 leukemia) was greater than 100 µM. The TGI (RPMI-8226 leukemia) was greater than 100 µM, the GI50 (RXF 393 renal) was greater than 100 µM and the TGI (RXF 393 renal) was greater than 100 µM. The GI50 (SF-268 CNS) was greater than 100 µM, the TGI (SF-268 CNS) was greater than 100 µM and the GI50 (SF-295 CNS) was greater than 100 µM. For the same compound, the TGI (SF-295 CNS) was greater than 100 µM, the GI50 (SF-539 CNS) was greater than 100 µM and the TGI (SF-539 CNS) was greater than 100 µM. The GI50 (SK-MEL-2 melanoma) was greater than 100 µM, the TGI (SK-MEL-2 melanoma) was greater than 100 µM and the GI50 (SK-MEL-28 melanoma) was greater than 100 µM. It also gave a TGI (SK-MEL-28 melanoma) greater than 100 µM, a GI50 (SK-OV-3 ovarian) greater than 100 µM and a TGI (SK-OV-3 ovarian) greater than 100 µM. The GI50 (SN12C renal) was greater than 100 µM, the TGI (SN12C renal) was greater than 100 µM and the GI50 (SNB-19 CNS) was greater than 100 µM. It also gave a TGI (SNB-19 CNS) greater than 100 µM, a GI50 (SNB-75 CNS) greater than 100 µM and a TGI (SNB-75 CNS) greater than 100 µM. The GI50 (SW-620 colon) was greater than 100 µM, the TGI (SW-620 colon) was greater than 100 µM and the GI50 (T-47D breast) was greater than 100 µM. It also gave a TGI (T-47D breast) greater than 100 µM, a GI50 (TK-10 renal) greater than 100 µM and a TGI (TK-10 renal) greater than 100 µM. It also gave a GI50 (U251 glioblastoma) greater than 100 µM, a TGI (U251 glioblastoma) greater than 100 µM and a GI50 (UACC-257 melanoma) greater than 100 µM. For the same compound, the TGI (UACC-257 melanoma) was greater than 100 µM, the GI50 (UACC-62 melanoma) was greater than 100 µM and the TGI (UACC-62 melanoma) was greater than 100 µM. The GI50 (UO-31 renal) was greater than 100 µM and the TGI (UO-31 renal) was greater than 100 µM.
